pKd: −log10 of the molar value.
Assays:
Assay in all cases: Ligand binding assay
[1] = target: T1, RARβ (Homo sapiens, UniProt P10826); conditions: read-out: Kd (nanomolar) RARβ
T1 sequence (P10826 1-455): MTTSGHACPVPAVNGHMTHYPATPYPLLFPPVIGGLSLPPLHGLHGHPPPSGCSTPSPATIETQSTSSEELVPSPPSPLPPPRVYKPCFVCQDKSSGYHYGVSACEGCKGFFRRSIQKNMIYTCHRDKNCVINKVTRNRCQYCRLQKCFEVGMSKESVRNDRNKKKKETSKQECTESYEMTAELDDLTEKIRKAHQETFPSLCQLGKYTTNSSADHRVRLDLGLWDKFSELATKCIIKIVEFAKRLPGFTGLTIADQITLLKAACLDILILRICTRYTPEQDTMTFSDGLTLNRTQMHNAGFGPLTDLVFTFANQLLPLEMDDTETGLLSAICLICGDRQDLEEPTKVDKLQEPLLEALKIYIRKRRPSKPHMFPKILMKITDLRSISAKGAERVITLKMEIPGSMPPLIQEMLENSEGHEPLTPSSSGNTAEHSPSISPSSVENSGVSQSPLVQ
Text: (§1) A holoreceptor transactivation assay and a ligand binding assay which measure the antagonist/agonist like activity of the compounds of the invention, or their ability to bind to the several retinoid receptor subtypes, respectively, are described in published PCT Application No. WO93/11755 (particularly on pages 30-33 and 37-41) published on Jun. 24, 1993, the specification of which is also incorporated herein by reference. A description of the holoreceptor transactivation assay is also provided below.
(§2) CV1 cells (5,000 cells/well) were transfected with an RAR reporter plasmid MTV-TREp-LUC (50 ng) along with one of the RAR expression vectors (10 ng) in an automated 96-well format by the calcium phosphate procedure of Heyman et al. Cell 68: 397-406. For RXR-α and RXR-γ transactivation assays, an RXR-responsive reporter plasmid CRBPII-tk-LUC (50 ng) along with the appropriate RXR expression vectors (10 ng) was used substantially as described by Heyman et al. above, and Allegretto et al. J. Biol. Chem. 268: 26625-26633. For RXR-β transactivation assays, an RXR-responsive reporter plasmid CPRE-tk-LUC ([…]) along with RXR-β expression vector ([…]) was used as described in above. These reporters contain DRI elements from human CRBPII and certain DRI elements from promotor, respectively (see Mangelsdorf et al. The Retinoids: Biology Chemistry and Medicine, pp. 319-349, Raven Press Ltd., New York and Heyman et al., cited above). A β-galactosidase (50 ng) expression vector was used as an internal control in the transfections to normalize for variations in transfection efficiency. The cells were transfected in triplicate for 6 hours, followed by incubation with retinoids for 36 hours, and the extracts were assayed for luciferase and […] activities. The detailed experimental procedure for holoreceptor transactivations has been described in Heyman et al. above, and Allegretto et al. cited above. The results obtained in this assay are expressed in EC50 numbers, as they are also in the chimeric receptor transactivation assay. The Heyman et al. Cell 68: 397-406, Allegretto et al. J. Biol. Chem. 268: 26625-26633, and Mangelsdorf et al. The Retinoids: Biology, Chemistry, and Medicine, pp. 319-349, Raven Press Ltd., New York, are expressly incorporated herein by reference. The results of ligand binding assay are expressed in Kd numbers. (See Cheng et al. Biochemical Pharmacology 22: 3099-3108, expressly incorporated herein by reference.) […]

[2] = target: T2, RARα (Homo sapiens, UniProt P10276); design: expressed in transfected cells; host or cells: CV1 cells; conditions: read-out: Kd (nanomolar) RARα
T2 sequence (P10276 1-462): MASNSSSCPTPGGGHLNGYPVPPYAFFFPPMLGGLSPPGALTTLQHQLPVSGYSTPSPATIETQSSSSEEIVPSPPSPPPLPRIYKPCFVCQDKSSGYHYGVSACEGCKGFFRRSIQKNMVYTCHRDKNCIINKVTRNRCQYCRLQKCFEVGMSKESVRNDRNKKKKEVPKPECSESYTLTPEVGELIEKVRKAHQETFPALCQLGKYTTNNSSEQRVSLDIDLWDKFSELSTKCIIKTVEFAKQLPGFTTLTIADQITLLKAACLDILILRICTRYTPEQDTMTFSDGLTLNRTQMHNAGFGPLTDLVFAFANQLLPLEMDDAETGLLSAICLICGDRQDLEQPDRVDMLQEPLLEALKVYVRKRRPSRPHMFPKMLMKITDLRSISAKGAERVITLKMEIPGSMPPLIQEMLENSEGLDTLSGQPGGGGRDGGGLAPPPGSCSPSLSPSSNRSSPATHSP
Text: as §1, §2

[3] = target: T3, RARγ (Homo sapiens, UniProt P13631); design: expressed in transfected cells; host or cells: CV1 cells; conditions: read-out: Kd (nanomolar) RARγ
T3 sequence (P13631 1-454): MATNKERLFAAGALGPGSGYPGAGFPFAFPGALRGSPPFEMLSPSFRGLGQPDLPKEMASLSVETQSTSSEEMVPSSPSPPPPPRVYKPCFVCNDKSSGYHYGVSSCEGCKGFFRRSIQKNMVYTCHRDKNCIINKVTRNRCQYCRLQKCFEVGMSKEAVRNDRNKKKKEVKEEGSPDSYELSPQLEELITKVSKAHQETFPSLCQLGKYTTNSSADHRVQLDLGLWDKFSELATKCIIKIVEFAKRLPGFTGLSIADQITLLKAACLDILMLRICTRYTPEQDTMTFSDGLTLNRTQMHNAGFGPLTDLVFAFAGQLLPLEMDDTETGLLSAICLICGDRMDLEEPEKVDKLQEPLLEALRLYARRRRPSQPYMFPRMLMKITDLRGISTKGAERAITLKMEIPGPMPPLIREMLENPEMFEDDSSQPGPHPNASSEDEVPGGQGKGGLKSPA
Text: as §1, §2

Row | SMILES | pKd [1] | pKd [2] | pKd [3]
1 | Cc1ccc(C2=CCC(C)(C)c3ccc(C#Cc4ccc(C(=O)O)cc4)cc32)cn1 [Compound 18, 4-[(5,6-Dihydro-5,5-dimethyl-8-(2-methyl-5-pyridyl)-2-naphthalenyl)ethynyl]benzoic acid] | 7.96 | 7.62 | 7.62
2 | CC1(C)CC=C(c2ccccn2)c2cc(C#Cc3ccc(C(=O)O)cc3)ccc21 [Compound 19, 4-[(5,6-Dihydro-5,5-dimethyl-8-(2-pyridyl)-2-naphthalenyl)ethynyl]benzoic acid] | 6.68 | 6.25 | 6.18
3 | Cc1cccc(C2=CCC(C)(C)c3ccc(C#Cc4ccc(C(=O)O)cc4)cc32)c1 [Compound 20, 4-[(5,6-Dihydro-5,5-dimethyl-8-(3-methylphenyl)-2-naphthalenyl)ethynyl]benzoic acid] | 7.66 | 6.89 | 7.47
4 | CCc1ccc(C2=CCC(C)(C)c3ccc(C#Cc4ccc(C(=O)O)cc4)cc32)cc1 [Compound 21, 4-[(5,6-Dihydro-5,5-dimethyl-8-(4-ethylphenyl)-2-naphthalenyl)ethynyl]benzoic acid] | 8.05 | 7.80 | 7.89
5 | COc1ccc(C2=CCC(C)(C)c3ccc(C#Cc4ccc(C(=O)O)cc4)cc32)cc1 [Compound 22, 4-[(5,6-Dihydro-5,5-dimethyl-8-(4-methoxyphenyl)-2-naphthalenyl)ethynyl]benzoic acid] | 7.77 | 7.62 | 7.57
6 | Cc1cc(C)cc(C2=CCC(C)(C)c3ccc(C#Cc4ccc(C(=O)O)cc4)cc32)c1 [Compound 24, 4-[(5 6-Dihydro-5,5-dimethyl-8-(3,5-dimethylphenyl)-2-naphthalenyl)ethynyl]benzoic acid] | 6.63 | 6.16 | 6.54
7 | CC1(C)CC=C(c2cccnc2)c2cc(C#Cc3ccc(C(=O)O)cc3)ccc21 [Compound 26, 4-[(5,6-Dihydro-5,5-dimethyl-8-(3-pyridyl)-2-naphthalenyl)ethynyl]benzoic acid] | 7.51 | 7.40 | 7.44
8 | Cc1ccccc1C1=CCC(C)(C)c2ccc(C#Cc3ccc(C(=O)O)cc3)cc21 [Compound 27, 4-[(5,6-Dihydro-5,5-dimethyl-8-(2-methylphenyl)-2-naphthalenyl)ethynyl]benzoic acid] | 7.85 | 7.16 | 7.59
9 | CC1(C)CC=C(c2cccc(O)c2)c2cc(C#Cc3ccc(C(=O)O)cc3)ccc21 [Compound 28, 4-[(5,6-Dihydro5,5-dimethyl-8-(3-hydroxyphenyl)-2-naphthalenyl)ethynyl]benzoic acid] | 7.11 | 6.17 | 6.63
10 | CC1(C)CC=C(c2ccc(O)cc2)c2cc(C#Cc3ccc(C(=O)O)cc3)ccc21 [Compound 29, 4-[(5,6-Dihydro-5,5-dimethyl-8-(4-hydroxyphenyl)-2-naphthalenyl)ethynyl]benzoic acid] | 7.32 | 6.63 | 7.10
11 | Cc1cnc(C2=CCC(C)(C)c3ccc(C#Cc4ccc(C(=O)O)cc4)cc32)s1 [Compound 30, 4-[(5,6-Dihydro-5,5-dimethyl-8-(5-methylthiazol-2-yl)-2-naphthalenyl)ethynyl]benzoic acid] | 6.85 | 6.17 | 6.66
12 | Cc1nc(C2=CCC(C)(C)c3ccc(C#Cc4ccc(C(=O)O)cc4)cc32)sc1C [Compound 32] | 7.05 | – | 6.77
13 | Cc1ccc(C2=CCC(C)(C)c3ccc(C(=O)Nc4ccc(C(=O)O)cc4)cc32)cc1 [Compound 36, 4-[[(5,6-Dihydro-5,5-dimethyl-8-(4-methylphenyl)-2-naphthalenyl)carbonyl]amino]-benzoic acid] | 6.26 | 7.89 | –
14 | Cc1ccc(C2=CCC(C)(C)c3ccc(C(=S)Nc4ccc(C(=O)O)c(F)c4)cc32)cc1 [Compound 63, 2-fluoro-4-[[(5,6-dihydro-5,5-dimethyl-8-(4-methylphenyl)-2-naphthalenyl)thiocarbonyl]amino]-benzoic acid] | 5.49 | 6.88 | –

Source: US6469028B1, “Synthesis and use of retinoid compounds having negative hormone and/or anatgonist activities” (Allergan, Inc., priority 1995, dated 2002)
